Test results: patent US7767666B2, “Butyl and butynyl benzyl amine compounds” (Janssen Pharmaceutica NV, priority 2006, dated 2010)
pKi: −log10 of the molar value.

Assays:
[1] = target: T1, Rat SERT (Rattus norvegicus, UniProt P31652); assay: Rat brain SERT [3H]-citalopram binding; conditions: rat brain membranes, 0.6 nM [3H]-Citalopram, 60 min at 25° C.
T1 construct: A rat brain without cerebellum (Zivic Laboratories, Inc.—Pittsburgh, Pa.) was homogenized; tissue Zivic Laboratories, Inc; host or cells: rat brain without cerebellum, membrane preparation
Method: The supernatant was removed and re-centrifuged at 15,000 rpm for 30 min. […] Membranes were incubated with 0.6 nM [^3H]-Citalopram plus/minus test compounds for 60 min at 25° C. and harvested by rapid filtration over GF/C glass fiber filters (pretreated with 0.3% polyethylenimine) followed by four washes with ice-cold buffer.

[2] = target: T2, human SERT (Homo sapiens, UniProt P31645); assay: Human SERT 3H-citalopram binding; conditions: HEK293 membranes expressing the human SERT, rt 1 h
T2 construct: expressed in transfected cells; host or cells: HEK293 membranes
Method: Homogenized HEK293 (Human Embryonic Kidney) membranes expressing the human SERT were incubated with ^3H-citalopram (SERT) at rt for 1 h in 50 mM Tris, 120 mM NaCl, 5 mM KCl (pH 7.4). […] The membranes were washed and the radioactivity was counted as above.

[3] = target: T3, human H3 receptor (Homo sapiens, UniProt Q9Y5N1); assay: H3 receptor binding; conditions: cloned human H3 receptor stably expressed in SK-N-MC cells
T3 construct: expressed in transfected cells
T3 sequence (Q9Y5N1 whole entry): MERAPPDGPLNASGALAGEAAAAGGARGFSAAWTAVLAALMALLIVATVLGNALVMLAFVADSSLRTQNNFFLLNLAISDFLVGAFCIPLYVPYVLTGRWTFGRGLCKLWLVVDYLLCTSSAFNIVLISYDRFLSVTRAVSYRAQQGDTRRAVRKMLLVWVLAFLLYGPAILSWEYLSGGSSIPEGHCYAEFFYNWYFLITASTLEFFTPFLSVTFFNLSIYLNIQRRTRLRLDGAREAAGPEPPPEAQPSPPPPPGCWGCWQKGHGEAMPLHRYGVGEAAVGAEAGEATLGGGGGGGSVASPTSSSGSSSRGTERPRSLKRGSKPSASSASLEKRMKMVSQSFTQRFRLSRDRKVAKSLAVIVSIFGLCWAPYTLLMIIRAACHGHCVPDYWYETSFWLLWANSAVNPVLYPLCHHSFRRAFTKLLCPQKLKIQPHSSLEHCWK

T1 sequence (P31652 whole entry): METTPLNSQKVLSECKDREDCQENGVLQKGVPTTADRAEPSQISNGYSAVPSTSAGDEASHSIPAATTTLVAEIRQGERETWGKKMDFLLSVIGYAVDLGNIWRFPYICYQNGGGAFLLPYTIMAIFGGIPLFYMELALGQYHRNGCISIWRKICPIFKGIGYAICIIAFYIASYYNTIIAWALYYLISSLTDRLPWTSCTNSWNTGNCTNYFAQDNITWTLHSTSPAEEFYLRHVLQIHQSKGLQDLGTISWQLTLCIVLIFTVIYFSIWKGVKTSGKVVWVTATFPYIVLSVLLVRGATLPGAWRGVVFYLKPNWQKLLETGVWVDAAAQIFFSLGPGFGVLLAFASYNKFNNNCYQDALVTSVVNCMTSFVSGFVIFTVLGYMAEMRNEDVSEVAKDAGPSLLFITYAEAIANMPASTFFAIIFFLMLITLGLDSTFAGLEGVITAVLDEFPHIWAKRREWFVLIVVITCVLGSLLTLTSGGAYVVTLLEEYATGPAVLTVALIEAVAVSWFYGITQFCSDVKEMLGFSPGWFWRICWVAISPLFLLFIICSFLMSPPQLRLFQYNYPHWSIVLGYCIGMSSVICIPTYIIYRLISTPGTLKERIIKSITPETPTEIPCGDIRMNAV
T2 sequence (P31645 whole entry): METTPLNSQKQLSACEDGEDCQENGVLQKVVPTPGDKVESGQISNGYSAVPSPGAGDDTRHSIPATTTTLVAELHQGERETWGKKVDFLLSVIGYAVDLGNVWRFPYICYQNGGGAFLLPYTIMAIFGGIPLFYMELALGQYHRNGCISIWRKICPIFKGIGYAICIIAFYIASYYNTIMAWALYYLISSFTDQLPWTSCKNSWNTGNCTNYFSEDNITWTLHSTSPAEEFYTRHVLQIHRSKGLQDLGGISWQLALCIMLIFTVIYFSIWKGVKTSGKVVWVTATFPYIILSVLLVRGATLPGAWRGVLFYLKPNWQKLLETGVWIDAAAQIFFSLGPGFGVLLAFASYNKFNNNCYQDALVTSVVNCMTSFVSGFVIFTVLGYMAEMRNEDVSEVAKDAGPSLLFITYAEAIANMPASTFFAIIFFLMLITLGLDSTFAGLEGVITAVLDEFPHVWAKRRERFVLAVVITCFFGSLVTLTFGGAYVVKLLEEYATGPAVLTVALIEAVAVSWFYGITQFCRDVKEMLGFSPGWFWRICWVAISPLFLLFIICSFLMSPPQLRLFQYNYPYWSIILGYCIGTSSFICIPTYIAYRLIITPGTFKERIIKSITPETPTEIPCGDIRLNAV

Structure (SMILES)	pKi [1]	pKi [2]	pKi [3]
CNCc1cc(C#CCCN2CCOCC2)ccc1Oc1ccccc1 [Example 6, Methyl-[5-(4-morpholin-4-yl-but-1-ynyl)-2-phenoxy-benzyl]-amine]	7.96	7.52	
CNCc1cc(C#CCCN2CCN(C3CC3)CC2)ccc1Oc1ccc(SC)cc1 [Example 13, [5-[4-(4-Cyclopropyl-piperazin-1-yl)-but-1-ynyl]-2-(4-methylsulfanyl-phenoxy)-benzyl]-methyl-amine]	8.70	8.46	7.28
CNCc1cc(C#CCCN2CCOCC2)ccc1Sc1cc(C(F)(F)F)ccn1 [Example 36, Methyl-[5-(4-morpholin-4-yl-but-1-ynyl)-2-(4-trifluoromethyl-pyridin-2-ylsulfanyl)-benzyl]-amine]	7.49		6.72
CNCc1cc(CCCCN2CCN(C3CC3)CC2)ccc1Oc1ccc(SC)cc1 [Example 32, [5-[4-(4-Cyclopropyl-piperazin-1-yl)-butyl]-2-(4-methylsulfanyl-phenoxy)-benzyl]-methyl-amine]	9.22	8.70	8.33
Clc1ccc(Oc2ccc(C#CCCN3CCOCC3)cc2CNC2CC2)cc1 [Example 22, [2-(4-Chloro-phenoxy)-5-(4-morpholin-4-yl-but-1-ynyl)-benzyl]-cyclopropyl-amine]	8.30		8.00
CNCc1ccc(C#CCCN2CCOCC2)cc1Oc1ccc(SC)cc1 [Example 37, Methyl-[2-(4-methylsulfanyl-phenoxy)-4-(4-morpholin-4-yl-but-1-ynyl)-benzyl]-amine]	8.74	8.47	6.37
CNCc1cc(C#CCCN(C2CC2)C2CC2)ccc1Oc1ccc(Cl)c(Cl)c1 [Example 17, N,N-Dicyclopropyl-{4-[4-(3,4-dichloro-phenoxy)-3-methylaminomethyl-phenyl]-but-3-ynyl}-amine]	7.40		7.00
CNCc1cc(C#CCCN2CCOCC2)ccc1Oc1cccnc1 [Example 21, Methyl-[5-(4-morpholin-4-yl-but-1-ynyl)-2-(pyridine-3-yloxy)-benzyl]-amine]	8.15		8.70
CSc1ccc(Oc2ccc(C#CCCN3CCCCC3)cc2CN(C)C(=O)OC(C)(C)C)cc1 [Example 35, Methyl-[2-(4-methylsulfanyl-phenoxy)-5-(4-piperidin-1-yl-but-1-ynyl)-benzyl]-carbamic acid tert-butyl ester]	7.62		7.34

More lines, in order of rising pKi [1], values ahead:

pKi [1]	pKi [2]	pKi [3]	Structure (SMILES)
9.00	8.92	5.73	CNCc1cc(C#CCCN2CCN(C(C)C)C(=O)C2)ccc1Oc1ccc(SC)cc1 [Example 25, 1-Isopropyl-4-{4-[3-methylaminomethyl-4-(4-methylsulfanyl-phenoxy)-phenyl]-but-3-ynyl}-piperazin-2-one]
9.00		7.49	CNCc1cc(C#CCCN2CCOCC2)ccc1Sc1ccc(Cl)cc1 [Example 31, [2-(4-Chloro-phenylsulfanyl)-5-(4-morpholin-4-yl-but-1-ynyl)-benzyl]-methyl-amine]
9.30	7.89	7.51	CNCc1cc(C#CCCN2CCN(C(C)C)CC2)ccc1Oc1ccc(SC)cc1 [Example 10, [5-[4-(4-Isopropyl-piperazin-1-yl)-but-1-ynyl]-2-(4-methylsulfanyl-phenoxy)-benzyl]-methyl-amine]
9.40	8.85	8.28	CNCc1cc(CCCCN2CCN(C(C)C)CC2)ccc1Oc1ccc(SC)cc1 [Example 33, [5-[4-(4-Isopropyl-piperazin-1-yl)-butyl]-2-(4-methylsulfanyl-phenoxy)-benzyl]-methyl-amine]
9.52	7.92	7.77	CNCc1cc(C#CCCNC2CC2)ccc1Oc1ccc(SC)cc1 [Example 14, Cyclopropyl-{4-[3-methylaminomethyl-4-(4-methylsulfanyl-phenoxy)-phenyl]-but-3-ynyl}-amine]
